From ChEMBL document CHEMBL5214903, “Diversity-oriented synthesis as a tool to expand the chemical space of DNA-encoded libraries” (Bioorg Med Chem, 2021) come the findings set out here.

Experiment [1] has as its target Bromodomain-containing protein 3 (Homo sapiens, UniProt Q15059). The experiment is described as follows: Binding affinity to recombinant human BRD3 bromodomain-1 (44 to 168 residues) expressed in Escherichia coli BL21 (DE3) cells assessed as inhibition constant by fluorescence polarization assay. Background: Polarisation of emitted light reports the rotation of a fluorescent probe.

The target in experiment [2] is Histone acetyltransferase p300 (Homo sapiens, UniProt Q09472). In words: Inhibition of p300 (unknown origin) using [3H]-Ac-CoA as substrate preincubated for 15 mins followed by substrate addition and measured after 60 mins by Flashplate assay.
Sequence of Histone acetyltransferase p300 (Q09472 whole entry): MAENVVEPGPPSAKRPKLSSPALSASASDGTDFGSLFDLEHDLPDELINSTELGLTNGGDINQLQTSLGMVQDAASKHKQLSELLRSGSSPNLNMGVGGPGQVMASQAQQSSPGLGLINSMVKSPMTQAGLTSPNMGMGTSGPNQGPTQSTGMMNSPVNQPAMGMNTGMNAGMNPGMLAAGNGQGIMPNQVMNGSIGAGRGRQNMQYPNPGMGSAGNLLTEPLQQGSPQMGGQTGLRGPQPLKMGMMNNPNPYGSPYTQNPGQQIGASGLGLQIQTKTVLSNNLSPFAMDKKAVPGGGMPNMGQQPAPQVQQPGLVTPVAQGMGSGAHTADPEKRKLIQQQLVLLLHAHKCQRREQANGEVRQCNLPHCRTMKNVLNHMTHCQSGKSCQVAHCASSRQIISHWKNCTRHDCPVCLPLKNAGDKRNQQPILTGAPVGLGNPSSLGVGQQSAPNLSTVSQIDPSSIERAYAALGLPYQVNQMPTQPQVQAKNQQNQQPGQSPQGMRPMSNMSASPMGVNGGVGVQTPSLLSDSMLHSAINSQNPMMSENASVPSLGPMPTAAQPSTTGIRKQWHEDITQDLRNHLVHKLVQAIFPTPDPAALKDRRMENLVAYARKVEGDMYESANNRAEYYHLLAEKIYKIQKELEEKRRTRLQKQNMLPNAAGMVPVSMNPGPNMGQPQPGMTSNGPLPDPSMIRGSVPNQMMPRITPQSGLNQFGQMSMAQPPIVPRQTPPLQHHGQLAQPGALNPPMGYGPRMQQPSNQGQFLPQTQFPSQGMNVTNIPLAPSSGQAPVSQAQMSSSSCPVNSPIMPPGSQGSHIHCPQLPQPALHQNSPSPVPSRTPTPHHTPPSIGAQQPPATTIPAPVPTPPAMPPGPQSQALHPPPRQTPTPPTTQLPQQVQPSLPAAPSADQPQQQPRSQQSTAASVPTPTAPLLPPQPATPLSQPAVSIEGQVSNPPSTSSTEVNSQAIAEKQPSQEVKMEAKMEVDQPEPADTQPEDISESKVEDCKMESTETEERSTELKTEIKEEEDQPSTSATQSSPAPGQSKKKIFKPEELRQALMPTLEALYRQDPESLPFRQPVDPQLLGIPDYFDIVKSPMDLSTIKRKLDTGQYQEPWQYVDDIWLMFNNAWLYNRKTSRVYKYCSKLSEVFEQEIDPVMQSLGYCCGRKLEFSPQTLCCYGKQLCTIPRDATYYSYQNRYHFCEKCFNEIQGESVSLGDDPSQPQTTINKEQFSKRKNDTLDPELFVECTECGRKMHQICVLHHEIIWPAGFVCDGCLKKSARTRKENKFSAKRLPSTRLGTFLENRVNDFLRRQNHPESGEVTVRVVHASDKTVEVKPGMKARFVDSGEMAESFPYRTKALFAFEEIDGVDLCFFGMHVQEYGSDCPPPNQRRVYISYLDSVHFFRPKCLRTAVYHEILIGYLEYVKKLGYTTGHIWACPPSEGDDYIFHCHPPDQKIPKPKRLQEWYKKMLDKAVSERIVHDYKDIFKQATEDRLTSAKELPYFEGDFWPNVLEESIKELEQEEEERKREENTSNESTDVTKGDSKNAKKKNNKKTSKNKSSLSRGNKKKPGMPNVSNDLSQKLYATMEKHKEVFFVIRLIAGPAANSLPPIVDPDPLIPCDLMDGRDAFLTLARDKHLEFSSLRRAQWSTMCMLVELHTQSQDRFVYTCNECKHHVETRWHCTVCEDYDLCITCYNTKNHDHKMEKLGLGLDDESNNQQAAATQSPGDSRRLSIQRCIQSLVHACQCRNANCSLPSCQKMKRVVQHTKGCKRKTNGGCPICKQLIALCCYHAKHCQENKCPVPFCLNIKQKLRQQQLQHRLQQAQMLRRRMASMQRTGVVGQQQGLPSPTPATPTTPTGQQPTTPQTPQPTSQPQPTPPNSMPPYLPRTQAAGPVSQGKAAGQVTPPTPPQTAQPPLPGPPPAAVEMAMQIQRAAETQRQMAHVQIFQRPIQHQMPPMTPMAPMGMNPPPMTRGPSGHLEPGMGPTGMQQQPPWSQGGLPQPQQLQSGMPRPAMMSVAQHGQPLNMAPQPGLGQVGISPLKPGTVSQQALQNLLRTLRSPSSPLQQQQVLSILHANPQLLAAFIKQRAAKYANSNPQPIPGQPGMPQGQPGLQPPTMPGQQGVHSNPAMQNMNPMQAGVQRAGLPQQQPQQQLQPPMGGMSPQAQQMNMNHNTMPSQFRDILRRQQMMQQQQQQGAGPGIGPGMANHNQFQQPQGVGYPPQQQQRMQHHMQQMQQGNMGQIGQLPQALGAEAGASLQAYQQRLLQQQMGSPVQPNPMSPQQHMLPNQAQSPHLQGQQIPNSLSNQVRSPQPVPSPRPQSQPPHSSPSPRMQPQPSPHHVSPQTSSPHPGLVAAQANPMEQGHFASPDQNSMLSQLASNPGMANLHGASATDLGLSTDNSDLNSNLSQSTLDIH
Experiment [3] in a line: Inhibition of Aurora (unknown origin). On the set-up: species or system Homo sapiens.
The target of experiment [4] is Transcriptional enhancer factor TEF-3 (Homo sapiens, UniProt Q15561). The experiment is described as follows: Inhibition of YAP binding to human TEAD4 by fluorescence polarization assay.
Sequence of Transcriptional enhancer factor TEF-3 (Q15561 whole entry): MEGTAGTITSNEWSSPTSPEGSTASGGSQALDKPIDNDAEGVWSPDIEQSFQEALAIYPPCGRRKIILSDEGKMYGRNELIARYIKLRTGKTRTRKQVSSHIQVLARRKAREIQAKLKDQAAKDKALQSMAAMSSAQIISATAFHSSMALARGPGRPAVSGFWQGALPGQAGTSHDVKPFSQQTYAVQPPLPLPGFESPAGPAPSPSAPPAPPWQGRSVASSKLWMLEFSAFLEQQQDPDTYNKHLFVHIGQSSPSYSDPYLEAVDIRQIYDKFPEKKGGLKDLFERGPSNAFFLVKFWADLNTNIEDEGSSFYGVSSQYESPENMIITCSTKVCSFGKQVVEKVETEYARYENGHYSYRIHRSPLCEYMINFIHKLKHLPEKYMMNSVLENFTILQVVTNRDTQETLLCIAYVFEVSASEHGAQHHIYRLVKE
Experiment [5] addresses E3 ubiquitin-protein ligase Mdm2 (Homo sapiens, UniProt Q00987). In words: Binding affinity to MDM2 (unknown origin) assessed as dissociation constant.

Sequence of E3 ubiquitin-protein ligase Mdm2 (Q00987 whole entry): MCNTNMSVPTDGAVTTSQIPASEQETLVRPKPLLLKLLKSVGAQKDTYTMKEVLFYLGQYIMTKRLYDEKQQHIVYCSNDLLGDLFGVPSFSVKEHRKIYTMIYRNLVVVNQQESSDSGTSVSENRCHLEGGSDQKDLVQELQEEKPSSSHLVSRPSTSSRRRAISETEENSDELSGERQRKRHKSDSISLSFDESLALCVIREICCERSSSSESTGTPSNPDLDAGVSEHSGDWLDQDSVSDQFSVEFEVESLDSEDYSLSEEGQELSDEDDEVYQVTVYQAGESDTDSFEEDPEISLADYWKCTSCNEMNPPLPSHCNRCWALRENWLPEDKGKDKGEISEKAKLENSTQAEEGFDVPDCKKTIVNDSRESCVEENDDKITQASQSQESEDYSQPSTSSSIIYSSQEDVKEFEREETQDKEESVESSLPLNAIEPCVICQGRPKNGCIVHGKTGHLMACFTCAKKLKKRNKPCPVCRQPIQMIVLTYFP
Sequence of Bromodomain-containing protein 3 (Q15059 whole entry, the tested form may be a part): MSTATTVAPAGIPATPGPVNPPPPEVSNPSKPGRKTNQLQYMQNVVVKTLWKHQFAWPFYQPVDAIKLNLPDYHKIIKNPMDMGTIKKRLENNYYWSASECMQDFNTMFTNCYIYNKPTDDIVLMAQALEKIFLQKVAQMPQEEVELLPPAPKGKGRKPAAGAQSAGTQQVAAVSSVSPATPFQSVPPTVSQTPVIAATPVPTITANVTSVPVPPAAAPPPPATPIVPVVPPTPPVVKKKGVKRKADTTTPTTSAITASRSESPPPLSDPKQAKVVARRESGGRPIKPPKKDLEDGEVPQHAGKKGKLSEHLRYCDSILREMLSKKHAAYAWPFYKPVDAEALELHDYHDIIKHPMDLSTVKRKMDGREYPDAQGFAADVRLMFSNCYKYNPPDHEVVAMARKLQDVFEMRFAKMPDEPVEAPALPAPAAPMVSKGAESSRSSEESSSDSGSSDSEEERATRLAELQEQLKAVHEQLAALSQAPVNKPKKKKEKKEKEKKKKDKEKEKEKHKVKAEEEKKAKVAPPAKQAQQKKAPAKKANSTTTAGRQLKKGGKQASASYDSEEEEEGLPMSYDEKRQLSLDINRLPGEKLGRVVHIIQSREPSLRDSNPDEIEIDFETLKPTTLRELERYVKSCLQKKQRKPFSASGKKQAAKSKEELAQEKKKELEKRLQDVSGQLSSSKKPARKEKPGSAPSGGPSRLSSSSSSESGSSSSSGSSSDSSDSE

Take `COc1cc(/C=C/C(=O)Nc2ccc3c(c2)C2(C(=O)N3)C(C(=O)OC(C)(C)C)CC3CSCN32)cc(OC)c1OC` (stereo not given): in experiment [1], the Ki (in general, the dissociation constant of the complex between target and ligand, obtained from inhibition or displacement) stood at 0.131 µM.
As for `COC(=O)C1CC2CSCN2C12C(=O)Nc1ccc(NCc3ccc([N+](=O)[O-])cc3OCC(=O)O)cc12` (stereo not given), the half-maximal inhibitory concentration (IC50) (usually the concentration at which inhibition is half-maximal) in experiment [2] came out at 45 µM.
In experiment [3], `CC(C)(C)OC(=O)C1CC2CSCN2C12C(=O)Nc1cc(-c3ccc4c(c3)CC(=O)N4)ccc12` (stereo not given) registered an IC50 of 45 µM.
As to `Cc1ccn2cc(Cn3cc(CN(C(=O)CCC(=O)OC(C)(C)C)C(C(=O)NC4C[C@@H]5CC[C@]4(C)C5(C)C)c4c[nH]c5cc(Cl)ccc45)nn3)nc2c1` (stereo not given in full), in experiment [4], the IC50 was determined as 0.51 µM.
Turning to `Cc1ccc(NC(=O)Cn2cc(CN(C(=O)CCC(=O)OC(C)(C)C)C(C(=O)NC3CCCCC3)c3c[nH]c4cc(Cl)ccc34)nn2)c(C)c1` (stereo not given), in experiment [5], the Kd (usually a measure of binding affinity in units of concentration) came to 33 µM.
